Key:
P450 1B1 = target: T1, P450 1B1 (Homo sapiens, UniProt Q16678); assay: EROD assay with recombinant enzyme, compound at […]; format: biochemical
T1 sequence (Q16678 1-543): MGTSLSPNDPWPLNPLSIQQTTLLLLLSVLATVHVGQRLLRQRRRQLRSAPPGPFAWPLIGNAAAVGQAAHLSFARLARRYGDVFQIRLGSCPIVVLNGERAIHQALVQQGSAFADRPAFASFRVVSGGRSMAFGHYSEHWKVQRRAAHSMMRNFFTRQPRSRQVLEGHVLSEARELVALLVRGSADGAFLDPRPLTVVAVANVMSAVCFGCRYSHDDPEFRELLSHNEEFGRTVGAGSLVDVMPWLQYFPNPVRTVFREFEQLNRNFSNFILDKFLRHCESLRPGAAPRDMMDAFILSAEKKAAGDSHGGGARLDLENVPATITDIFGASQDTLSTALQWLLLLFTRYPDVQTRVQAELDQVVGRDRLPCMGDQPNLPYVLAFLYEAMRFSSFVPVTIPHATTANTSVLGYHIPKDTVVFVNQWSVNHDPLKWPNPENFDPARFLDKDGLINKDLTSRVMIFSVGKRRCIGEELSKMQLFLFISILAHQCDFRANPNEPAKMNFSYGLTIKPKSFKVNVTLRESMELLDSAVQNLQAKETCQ
T1 sequence (P16435 2-677 partner): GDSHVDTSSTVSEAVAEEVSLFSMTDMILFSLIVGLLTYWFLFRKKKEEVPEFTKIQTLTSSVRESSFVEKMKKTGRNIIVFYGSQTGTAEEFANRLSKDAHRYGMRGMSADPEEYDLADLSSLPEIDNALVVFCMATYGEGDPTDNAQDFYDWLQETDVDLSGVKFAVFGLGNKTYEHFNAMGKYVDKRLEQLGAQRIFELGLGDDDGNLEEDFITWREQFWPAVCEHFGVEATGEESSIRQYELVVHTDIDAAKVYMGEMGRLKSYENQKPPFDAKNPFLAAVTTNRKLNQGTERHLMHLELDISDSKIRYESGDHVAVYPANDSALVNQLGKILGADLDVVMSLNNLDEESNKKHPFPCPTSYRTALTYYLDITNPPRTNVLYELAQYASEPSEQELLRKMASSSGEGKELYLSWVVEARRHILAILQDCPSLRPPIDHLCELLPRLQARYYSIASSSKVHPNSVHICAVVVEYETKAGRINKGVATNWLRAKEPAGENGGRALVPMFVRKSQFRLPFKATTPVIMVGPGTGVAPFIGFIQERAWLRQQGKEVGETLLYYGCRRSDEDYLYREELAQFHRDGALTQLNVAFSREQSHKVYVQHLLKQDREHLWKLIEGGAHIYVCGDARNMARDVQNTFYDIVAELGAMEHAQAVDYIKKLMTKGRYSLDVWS

P450 1A1 = target: T2, P450 1A1 (Homo sapiens, UniProt P04798); assay: EROD assay with recombinant enzyme, compound at […]; format: biochemical
T2 sequence (P04798 1-512): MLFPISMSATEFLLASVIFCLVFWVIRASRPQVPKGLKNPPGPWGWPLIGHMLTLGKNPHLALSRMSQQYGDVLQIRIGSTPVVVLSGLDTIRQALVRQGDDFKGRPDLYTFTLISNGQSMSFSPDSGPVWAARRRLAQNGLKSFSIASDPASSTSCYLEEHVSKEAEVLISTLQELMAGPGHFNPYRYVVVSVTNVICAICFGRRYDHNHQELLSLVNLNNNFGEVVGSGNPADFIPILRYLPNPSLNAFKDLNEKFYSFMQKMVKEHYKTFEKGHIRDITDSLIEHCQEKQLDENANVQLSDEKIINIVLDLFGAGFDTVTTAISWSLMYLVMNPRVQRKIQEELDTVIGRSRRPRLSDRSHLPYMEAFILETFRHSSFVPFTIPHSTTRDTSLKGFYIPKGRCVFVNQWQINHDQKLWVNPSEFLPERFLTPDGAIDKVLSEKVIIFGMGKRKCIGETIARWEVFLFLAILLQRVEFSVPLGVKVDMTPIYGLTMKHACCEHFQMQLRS
T2 sequence (P16435 2-677 partner): T1 sequence (P16435 2-677 partner)

| SMILES | EROD assay with recombinant enzyme, compound at 1 and 10 uM (P450 1B1) | EROD assay with recombinant enzyme, compound at 1 and 10 uM (P450 1A1) |
| --- | --- | --- |
| O=C(/C=C/c1ccc(O)cc1)c1ccc(O)cc1O [LigC, isoliquiritigenin] | LicA and LigC led to a significant inhibition of recombinant P450 1A1/1B1 enzyme activity (Figure 7B, C) | LicA and LigC led to a significant inhibition of recombinant P450 1A1/1B1 enzyme activity (Figure 7B, C) |
| C=CC(C)(C)c1cc(/C=C/C(=O)c2ccc(O)cc2)c(OC)cc1O [LicA, licochalcone A] | LicA and LigC led to a significant inhibition of recombinant P450 1A1/1B1 enzyme activity (Figure 7B, C) | LicA and LigC led to a significant inhibition of recombinant P450 1A1/1B1 enzyme activity (Figure 7B, C) |
